# Measurements published in patent publication US7169942B2, “Cannabinoid derivatives, methods of making, and use thereof” (priority 2003, dated 2007).
# Where two headings read alike, the source gives them in different places.
# Columns and labels:
# human CB1 receptor = molecular target: T1, human CB1 receptor (Homo sapiens, UniProt P21554); assay: biochemical; type: binding
# T1 construct: purchased Perkin-Elmer Life Sciences, Inc. Lot #1929; host or cells: HEK293 (HEK293 EBNA according to b236 for compounds 33-36)
# human CB2 receptor = molecular target: T2, human CB2 receptor (Homo sapiens, UniProt P34972); assay: CB2 receptor binding assay, displacement of [3H]CP 55,940
# T2 construct: purchased Perkin-Elmer Life Sciences, Inc. Lot #1930
# [1] = test system: rat hemorrhagic shock model; assay: Rat hemorrhagic shock model; conditions: FIG. 22
# CB1 = CB1 (Rattus norvegicus, UniProt P20272); conditions: literature value, highly potent CB1 analogs; read-out: Ki of reference cannabinoid; cited from earlier work
# C6 glioma cells = assay: Cytotoxicity on C6 glioma cells (MTS, CellTiter 96); conditions: concentrations of 8 μM
# [2] = Table 3, human receptor in HEK293 EBNA cell membranes, three experiments in duplicate, SEM in parentheses
# [3] = Table 1, affinity ratio of Ki values
# [4] = Table 1, membranes of HEK293 cells with human CB1, SEM in parentheses, n≧2 in triplicate, read-out: CB1 Ki
# [5] = Table 3, human receptor in HEK293 EBNA cell membranes, three experiments in duplicate, SEM in parentheses, read-out: CB1 Ki
# [6] = Table 3, human receptor in HEK293 EBNA cell membranes, three experiments in duplicate, SEM in parentheses, read-out: CB2 Ki
# [7] = Table 8, SEM in parentheses, n≧2 in triplicate, read-out: CB1 Ki
# [8] = Table 8, SEM in parentheses, n≧2 in triplicate
# T2 sequence (P34972 whole entry): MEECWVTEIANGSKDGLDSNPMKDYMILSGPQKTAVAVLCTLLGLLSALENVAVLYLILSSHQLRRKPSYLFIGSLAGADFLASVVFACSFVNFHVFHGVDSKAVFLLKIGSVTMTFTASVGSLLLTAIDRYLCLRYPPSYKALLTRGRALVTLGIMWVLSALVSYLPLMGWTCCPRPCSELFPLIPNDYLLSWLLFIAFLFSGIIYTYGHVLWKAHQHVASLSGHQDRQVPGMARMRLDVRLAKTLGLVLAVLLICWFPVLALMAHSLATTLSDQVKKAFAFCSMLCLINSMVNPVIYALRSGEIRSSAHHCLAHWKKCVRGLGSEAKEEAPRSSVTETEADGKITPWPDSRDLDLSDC
# T1 sequence (P21554 whole entry): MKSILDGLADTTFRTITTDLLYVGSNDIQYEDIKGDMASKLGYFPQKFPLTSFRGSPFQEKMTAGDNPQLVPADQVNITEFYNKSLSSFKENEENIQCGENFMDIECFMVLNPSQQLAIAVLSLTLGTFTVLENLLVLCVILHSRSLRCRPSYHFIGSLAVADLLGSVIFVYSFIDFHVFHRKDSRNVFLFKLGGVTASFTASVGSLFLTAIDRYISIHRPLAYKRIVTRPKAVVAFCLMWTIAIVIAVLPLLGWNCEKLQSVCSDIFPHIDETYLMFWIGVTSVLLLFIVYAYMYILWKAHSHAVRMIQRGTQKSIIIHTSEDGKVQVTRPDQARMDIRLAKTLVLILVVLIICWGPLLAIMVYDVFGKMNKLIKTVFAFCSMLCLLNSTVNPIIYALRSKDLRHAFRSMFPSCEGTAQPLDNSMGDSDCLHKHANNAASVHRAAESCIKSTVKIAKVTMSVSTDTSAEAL
# Chain of CB1 (P20272 whole entry): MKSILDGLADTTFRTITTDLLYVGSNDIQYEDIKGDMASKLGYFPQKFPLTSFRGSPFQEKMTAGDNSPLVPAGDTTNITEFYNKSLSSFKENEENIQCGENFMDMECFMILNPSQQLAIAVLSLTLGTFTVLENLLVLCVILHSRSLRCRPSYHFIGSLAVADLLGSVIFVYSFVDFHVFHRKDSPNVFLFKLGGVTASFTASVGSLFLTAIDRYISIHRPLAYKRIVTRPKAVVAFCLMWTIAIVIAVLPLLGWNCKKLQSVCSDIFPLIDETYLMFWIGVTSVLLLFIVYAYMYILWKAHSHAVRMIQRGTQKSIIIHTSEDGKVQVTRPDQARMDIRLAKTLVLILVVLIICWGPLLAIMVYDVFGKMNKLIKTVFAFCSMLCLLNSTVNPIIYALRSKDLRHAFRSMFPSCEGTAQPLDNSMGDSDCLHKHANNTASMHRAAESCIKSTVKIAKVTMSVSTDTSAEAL
compound,measurement,setting,value
"CCCCC(=O)c1cc(OC)cc(OC)c1 [Compound 5, 1-(3,5-Dimethoxy-phenyl)-pentan-1-one]",CB1 Ki,human CB1 receptor; [2],significantly reduced binding affinities
same,CB2 Ki,human CB2 receptor; [2],significantly reduced binding affinities
"CCCCC1(c2cc(O)c3c(c2)OC(C)(C)C2CC=C(C)CC32)SCCS1 (centres unmarked) [Compound 23, 3-(2-Butyl-[1,3]dithiolan-2-yl)-6,6,9-trimethyl-6a,7,10,10a-tetrahydro-6H-benzo[c]chromen-1-ol]",fold increase in binding to the CB1 receptor relative to Δ8-THC,human CB1 receptor,33 fold
same,fold increased affinity for the CB1 receptor relative to the carbon equivalent 24,human CB1 receptor,4.7 fold
same,Ratio CB1/CB2,human CB1 receptor; [3],1.47
same,CB1 Ki,"human CB1 receptor; Table 1, membranes of HEK293 cells with human CB1, SEM in parentheses, n≧2 in triplicate",sub-nanomolar
same,Ki,human CB1 receptor; [4],0.85 nM
same,Ki,human CB2 receptor,0.58 nM
same,fold increase in binding to the CB2 receptor relative to Δ8-THC,human CB2 receptor,47 fold
same,fold increased affinity for the CB2 receptor relative to the carbon equivalent 24,human CB2 receptor,11 fold
same,CB2 Ki,"human CB2 receptor; Table 1, membranes of CHO-K1 cells with human CB2, SEM in parentheses, n≧2 in triplicate",sub-nanomolar
"CC1=CCC2C(C1)c1c(O)cc(C3(C4CCCC4)SCCS3)cc1OC2(C)C (centres unmarked) [Compound 24, 3-(2-Cyclopentyl-[1,3]dithiolan-2-yl)-6,6,9-trimethyl-6a,7,10,10a-tetrahydro-6H-benzo[c]chromen-1-ol]",Ratio CB1/CB2,human CB1 receptor; [3],3.46
same,Ki,human CB1 receptor; [4],9.49 nM
same,Ki,human CB2 receptor,2.74 nM
same,fold decrease in affinity at the CB2 receptor (dithiolane ring),human CB2 receptor,7 fold
"CC1=CCC2C(C1)c1c(O)cc(C3(C4CCCCC4)SCCS3)cc1OC2(C)C (centres unmarked) [Compound 25, 3-(2-Cyclohexyl-[1,3]dithiolan-2-yl)-6,6,9-trimethyl-6a,7,10,10a-tetrahydro-6H-benzo[c]chromen-1-ol]",Ratio CB1/CB2,human CB1 receptor,1.77
same,Ki,human CB1 receptor; [4],1.86 nM
same,Ki,human CB2 receptor,1.05 nM
same,change in mean blood pressure versus time relative to positive control Δ8-THC and NS-398,[1]; 12 mg/kg in combination with NS-398 2 mg/kg,improved behavior relative to the positive control
"CC1=CCC2C(C1)c1c(O)cc(C3(C4CCCCCC4)SCCS3)cc1OC2(C)C (centres unmarked) [Compound 26, 3-(2-Cycloheptyl-[1,3]dithiolan-2-yl)-6,6,9-trimethyl-6a,7,10,10a-tetrahydro-6H-benzo[c] chromen-1-ol]",Ratio CB1/CB2,human CB1 receptor; [3],0.27
same,Ki,human CB1 receptor; [4],1.76 nM
same,Ki,human CB2 receptor,6.62 nM
same,fold decrease in affinity at the CB2 receptor (dithiolane ring),human CB2 receptor,33 fold
"CC1=CCC2C(C1)c1c(O)cc(C(C)(C)C3CCCC3)cc1OC2(C)C (centres unmarked) [Compound 27, 3-(1-Cyclopentyl-1-methyl-ethyl)-6,6,9-trimethyl-6a,7,10,1a-tetrahydro-6H-benzo[c]chromen-1-ol]",Ratio CB1/CB2,human CB1 receptor; [3],0.84
same,Ki,human CB1 receptor; read-out: CB1 Ki,0.34 nM
same,Ki,"human CB2 receptor; Table 1, membranes of CHO-K1 cells with human CB2, SEM in parentheses, n≧2 in triplicate, read-out: CB2 Ki",0.39 nM
"CC1=CCC2C(C1)c1c(O)cc(C(C)(C)C3CCCCC3)cc1OC2(C)C (centres unmarked) [Compound 28, 3-(1-Cyclohexyl-1-methyl-ethyl)-6,6,9-trimethyl-6a,7,10,10a-tetrahydro-6H-benzo[c]chromen-1-ol]",Ratio CB1/CB2,human CB1 receptor; [3],0.87
same,Ki,human CB1 receptor; [4],0.57 nM
same,Ratio CB1/CB2,"human CB1 receptor; Table 3, ratio of Ki values",0.87
same,Ratio CB1/CB2,"human CB1 receptor; Table 3, ratio of Ki values, listed as 32",binds both the subtypes with almost equal affinity
same,Ki,human CB2 receptor,0.65 nM
same,"rapid increase in ΔMAP, level reached relative to basal MAP",[1]; 12 mg/kg with 2 mg/kg NS-398 (COX-2 inhibitor),≤ 85%
"CC1=CCC2C(C1)c1c(O)cc(C(C)(C)C3CCCCCC3)cc1OC2(C)C (centres unmarked) [Compound 29, 3-(1-Cycloheptyl-1-methyl-ethyl)-6,6,9-trimethyl-6a,7,10,10a-tetrahydro-6H-benzo[c]chromen-1-ol]",Ki,human CB1 receptor; [4],0.94 nM
same,Ki,human CB2 receptor,0.22 nM
"CC1=CCC2C(C1)c1c(O)cc(C3(c4ccccc4)SCCS3)cc1OC2(C)C (centres unmarked) [Compound 34, dithiolanyl-phenyl-Δ^8-THC]",fold decrease in affinity relative to the 1′-cyclohexyl congener,human CB1 receptor,10 fold
same,Ki,human CB1 receptor; [5],17.3 nM
same,Ki,human CB2 receptor; [6],17.6 nM
"CC1=CCC2C(C1)c1c(O)cc(Cc3ccccc3)cc1OC2(C)C (centres unmarked) [Compound 35, methylene-phenyl-Δ^8-THC]",Ki,human CB1 receptor; [5],67.6 nM
same,Ratio CB1/CB2,"human CB1 receptor; Table 3, ratio of Ki values",0.78
same,Ki,human CB2 receptor; [6],85.9 nM
"CC1=CC[C@@H]2[C@@H](C1)c1c(O)cc(C(=O)c3ccccc3)cc1OC2(C)C [Compound 36, methanone-phenyl-Δ^8-THC]",Ratio CB1/CB2,human CB1 receptor,12.6
same,fold decrease in binding affinity for the CB1 receptor compared to Δ8-THC,human CB1 receptor,~10 fold
same,Ki,human CB1 receptor; [5],297 nM
same,Ki,human CB2 receptor; [6],23.6 nM
"CC1=CCC2C(C1)c1c(O)cc(C(C)(C)c3ccc(C)cc3)cc1OC2(C)C (centres unmarked) [Compound 50, 6,6,9-Trimethyl-3-(1-methyl-1-p-tolyl-ethyl)-6a,7,10,10a-tetrahydro-6H-benzo[c]chromen-1-ol]",Ki,human CB1 receptor; [7],2.13 nM
same,Ratio CB1/CB2,"human CB1 receptor; Table 8, ratio of Ki values",3.56
same,Ki,human CB2 receptor,0.88 nM
same,CB2 Ki,human CB2 receptor; [8],sub-nanomolar
"CC1=CCC2C(C1)c1c(O)cc(C(C)(C)c3cccc(C)c3)cc1OC2(C)C (centres unmarked) [Compound 51, 6,6,9-Trimethyl-3-(1-methyl-1-m-tolyl-ethyl)-6a,7,10,10a-tetrahydro-6H-benzo[c]chromen-1-ol]",Ki,human CB1 receptor; [7],2.53 nM
same,Ratio CB1/CB2,"human CB1 receptor; Table 8, ratio of Ki values",2.24
same,Ki,human CB2 receptor,1.13 nM
"CC1=CCC2C(C1)c1c(O)cc(C(C)(C)c3ccc(Cl)cc3)cc1OC2(C)C (centres unmarked) [Compound 52, 3-[1-(4-Chloro-phenyl)-1-methyl-ethyl]-6,6,9-trimethyl-6a,7,10,10a-tetrahydro-6H-benzo[c]chromen-1-ol]",Ki,human CB1 receptor; [7],76.1 nM
same,Ki,human CB2 receptor,12.4 nM
"CC1=CCC2C(C1)c1c(O)cc(C(C)(C)c3cccc(Cl)c3)cc1OC2(C)C (centres unmarked) [Compound 53, 3-[1-(3-Chloro-phenyl)-1-methyl-ethyl]-6,6,9-trimethyl-6a,7,10,10a-tetrahydro-6H-benzo[c]chromen-1-ol]",Ki,human CB1 receptor; [7],18.8 nM
same,Ki,human CB2 receptor,1.68 nM
"CC1=CCC2C(C1)c1c(O)cc(C(C)(C)c3ccc(F)cc3)cc1OC2(C)C (centres unmarked) [Compound 54, 3-[1-(4-Fluoro-phenyl)-1-methyl-ethyl]-6,6,9-trimethyl-6a,7,10,10a-tetrahydro-6H-benzo[c]chromen-1-ol]",Ratio CB1/CB2,human CB1 receptor,0.79
same,Ki,human CB1 receptor; [7],2.8 nM
same,Ki,human CB2 receptor,3.54 nM
same,CB2 Ki,human CB2 receptor; [8],did show enhanced affinity for the CB-2 receptor
"CC1=CCC2C(C1)c1c(O)cc(C(C)(C)c3cccs3)cc1OC2(C)C (centres unmarked) [Compound 55, 6,6,9-Trimethyl-3-(1-methyl-1-thiophen-2-yl-ethyl)-6a,7,10,10a-tetrahydro-6H-benzo[c]chromen-1-ol]",Ki,human CB1 receptor,1.08 nM
same,Ratio CB1/CB2,human CB1 receptor,4.00
same,Ki,human CB2 receptor,0.27 nM
same,CB2 Ki,human CB2 receptor; [8],sub-nanomolar
"CCCCCCC(C)(C)c1cc(O)c2c(c1)OC(C)(C)C1CC=C(C)CC21 (centres unmarked) [DMHT, 1′,1′-dimethylheptyl-Δ^8-THC]",Ki,CB1,0.77 nM
"CCCCCCC1(c2cc(O)c3c(c2)OC(C)(C)C2CC=C(C)CC32)SCCS1 (centres unmarked) [DTHT, 1′,1′-dithiolaneheptyl-Δ^8-THC]",Ki,CB1,0.32 nM
gem-dimethyl-phenyl-Δ^8-THC [Compound 33],Ratio CB1/CB2,human CB1 receptor,13.5
same,Ki,human CB1 receptor; read-out: CB1 Ki,12.3 nM
same,fold selectivity for the CB2 receptor,human CB2 receptor; CB2 over CB1,13 fold
same,Ki,human CB2 receptor; [6],0.91 nM
same,Ki,"human CB2 receptor; Table 8, SEM in parentheses, n≧2 in triplicate, read-out: CB2 Ki",0.91 nM
same,time to complete cell death,C6 glioma cells,≤ 5 h
